Where two headings read alike, the source gives them in different places.

We go through 4 compounds from US20080312164A1 (priority 2006, published 2008).

The test system of assay [1] is Du145 cells. Put plainly: Calcein AM cytotoxicity assay, Du145. The class given is cell-based. To be noted: Homo sapiens. The source says: (§1) Five serial 1:2 dilutions were made with anhydrous DMSO at 100× the final concentration used in the assay.
Assay [2] relates to Du145 cells. Put plainly: Cell Titer-Glo cytotoxicity assay, Du145. Type of assay: cell-based. Conditions: Homo sapiens.
Text: as §1
For orientation: In ATP-based viability assays light output follows the ATP content of the culture.

Assay [3] has as its system HCT-116 cells. Put plainly: Calcein AM cytotoxicity assay, HCT-116. Conditions: Homo sapiens. Type of assay: cell-based.
Text: as §1

Assay [4] relates to HCT-116 cells. Put plainly: Cell Titer-Glo cytotoxicity assay, HCT-116. The class given is cell-based. Conditions: Homo sapiens.
Text: as §1

Assay [5] deals with Hep3B cells. Put plainly: Calcein AM cytotoxicity assay, Hep3B. The class given is cell-based. Conditions: Homo sapiens, 72 h.
Text: as §1

Assay [6] deals with Hep3B cells. Put plainly: Cell Titer-Glo cytotoxicity assay, Hep3B. To be noted: Homo sapiens, 72 h. Type of assay: cell-based.
Text: as §1

Assay [7] deals with SF-268 cells. Put plainly: Calcein AM cytotoxicity assay, SF-268. Type of assay: cell-based. Conditions: Homo sapiens.
Text: as §1

Assay [8] deals with SF-268 cells. Put plainly: Cell Titer-Glo cytotoxicity assay, SF-268. The class given is cell-based. To be noted: Homo sapiens.
Text: as §1

Assay [9] relates to SK-OV-3 cells. Put plainly: Calcein AM cytotoxicity assay, SK-OV-3. Type of assay: cell-based. Conditions: Homo sapiens.
Text: as §1

Assay [10] relates to SK-OV-3 cells. Put plainly: Cell Titer-Glo cytotoxicity assay, SK-OV-3. Type of assay: cell-based. To be noted: Homo sapiens.
Text: as §1

The test system of assay [11] is NCI/ADR RES cells. Put plainly: Calcein AM cytotoxicity assay, NCI/ADR-RES. To be noted: Homo sapiens, 72 h. Type of assay: cell-based.
Text: as §1

The subject of assay [12] is NCI/ADR RES cells. Put plainly: Cell Titer-Glo cytotoxicity assay, NCI/ADR-RES. To be noted: Homo sapiens, NCI/ADR-RES, 72 h. The class given is cell-based, human.
Text: as §1

For assay [13], the system named is NCI-H460 cells. Put plainly: Calcein AM cytotoxicity assay, NCI-H460. Type of assay: cell-based. To be noted: Homo sapiens.
Text: as §1

Assay [14] deals with NCI-H460 cells. Put plainly: Cell Titer-Glo cytotoxicity assay, NCI-H460. Conditions: Homo sapiens. Type of assay: cell-based, human.
Text: as §1

The subject of assay [15] is MCF7 cells. Put plainly: Calcein AM cytotoxicity assay, MCF7. To be noted: Homo sapiens. Type of assay: cell-based.
Text: as §1

The test system of assay [16] is MCF7 cells. Put plainly: Cell Titer-Glo cytotoxicity assay, MCF7. To be noted: Homo sapiens. The class given is cell-based, human.
Text: as §1

The test system of assay [17] is NmuMG mouse mammary normal epithelial cells. Put plainly: Calcein AM cytotoxicity assay, NmuMG. The class given is cell-based. To be noted: Epithelial cell, 72 h.
Text: as §1

Assay [18] shares this test system. Put plainly: Cell Titer-Glo cytotoxicity assay, NmuMG. Type of assay: cell-based. Conditions: Mus musculus, Epithelial cell, 72 h.
Text: as §1

A further assay deals with HT-29 cells. Put plainly: MTT cytotoxicity assay, HT-29. The class given is cell-based. To be noted: Homo sapiens. (Tetrazolium assays rely on reduction of a dye to a coloured formazan, in cell work by metabolically active cells.)
Another assay relates to human cancer cell lines. Put plainly: Cytotoxicity across the panel of human cancer cell lines (average, high-throughput assays). The class given is cell-based. To be noted: for IC50: read-out: Cancerous Average IC50 / Average IC50 in Cancer Cell Lines.
Text: as §1

The mark [19] stands for this setting: DU-145, Du145, Calcein AM, 72 h, read-out: IC50.
Setting [20] is: DU-145, Du145, Cell Titer-Glo, 72 h, read-out: IC50.
The mark [21] stands for this setting: HCT-116, Calcein AM, 72 h, read-out: IC50.
Setting [22] is: HCT-116, Cell Titer-Glo, 72 h, read-out: IC50.
[23] abbreviates: SF-268, Calcein AM, 72 h, read-out: IC50.
Where [24] appears, read: SF-268, Cell Titer-Glo, 72 h, read-out: IC50.
Setting [25] is: SK-OV-3, Calcein AM, 72 h, read-out: IC50.
[26] abbreviates: SK-OV-3, Cell Titer-Glo, 72 h, read-out: IC50.
The mark [27] stands for this setting: NCI-H460, Calcein AM, 72 h, read-out: IC50.
Where [28] appears, read: NCI-H460, Cell Titer-Glo, 72 h, read-out: IC50.
[29] abbreviates: MCF7, Calcein AM, 72 h, read-out: IC50.
[30] abbreviates: MCF7, Cell Titer-Glo, 72 h, read-out: IC50.
Setting [31] is: NmuMG, Calcein AM, read-out: IC50.
Where [32] appears, read: NmuMG, Cell Titer-Glo, read-out: IC50.
[33] abbreviates: HT-29, MTT, 24 h, read-out: IC50.
Setting [34] is: average across eight human cancer cell lines, MTT (HT-29) values excluded.

Text for HT-29 cells: The IC50 value for each library member represents at least twelve replicates of dose-response experiments conducted over five concentrations. […] In this assay, live cells were distinguished by the intracellular enzymatic activity that converts the cell-permeable molecule MTT to strongly colored formazan crystals, which are retained within live cells and absorb light at 570 nm.
MTT Cytotoxicity Assay. HT-29 cell lines were maintained in RPMI medium 1640 supplemented with 10% (wt/vol) FBS and 1% penicillin-streptomycin (PS) (100 units/mL and 100 μg/mL). Cells were harvested by trypsinization using 0.25% trypsin and 0.1% EDTA and plated at a density of 2,000-5,000 cells per well of each 96-well microtiter plate. Cells were grown for 24 h at 37° C., with 5% CO2/95% air in a humidified incubator to allow cell attachment to occur before compound addition. Library members were stored at −20° C. under desiccating conditions before the assay. Library member stocks (1000×) were prepared in falcon tubes (BD Biosciences). Five dilutions were made with DMSO at 1000× the final concentration used in the assay. The 1000× stocks (3 μL) were diluted with complete culture medium (3 mL). Each plate contained twelve replicates of cells treated with 0.1% DMSO in complete cell culture medium that served as an individual negative control. Library member stocks (1×, 200 μL) were added to aspirated cells and replicated twelve times on each plate. Cells were incubated with the library members for 24 h before optical density reading. Test plates were removed from the incubator and washed once in sterile PBS to remove serum containing library members. Freshly-made 10×MTT solution in sterile PBS (5 mg/mL) was diluted 1:10 in serum-free culture medium and was sterilized using a 0.2 μm filter. Diluted MTT solution (1×, 50 μL) was added to each well and the plates were incubated in the dark for 2 h. Test plates were centrifuged at 1800×g for 5 min at 4° C. using a Beckman GPR centrifuge. MTT solution was removed by aspiration and 100 μL DMSO was added to each well to lyse cells and solubilize formazan crystals. Test plates were incubated in the dark at room temperature for 10 min. Plates were read for optical density at 570 nm.
IC50 Calculations. For each library member, at least three dose-response experiments were conducted on separate plates. […] To calculate IC50, percent inhibitions were plotted as a function of log[concentration] and then fit to a four-parameter logistic model that allowed for a variable Hill slope by using XLFIT 4.1 (ID Business Solutions, Emeryville, Calif.).

Take `C[S+]([O-])CCCCN=C=S` (racemic) [Compound 13, 1-isothiocyanato-4-(methylsulfinyl)butane]: the IC50 in the assay with Du145 cells [1] (setting [19]) is 6.25 µM; in the assay with Du145 cells [2] (setting [20]) it was 8.62 µM; in the assay with HCT-116 cells [3] (setting [21]) it was 6.13 µM; in the assay on HCT-116 cells [4] (setting [22]), 4.81 µM; with Hep3B cells [5], < 3.13 µM; in the assay with Hep3B cells [6] (Cell Titer-Glo, read-out: IC50), 2.75 µM. The IC50 in the assay with SF-268 cells [7] (setting [23]) was 5.69 µM; in the assay with SF-268 cells [8] (setting [24]) it was 6.22 µM; with SK-OV-3 cells [9] (setting [25]), 5.65 µM; with SK-OV-3 cells [10] (setting [26]) it was 9.9 µM; in the assay on NCI/ADR RES cells [11] (Calcein AM, read-out: IC50), 13.1 µM; in the assay with NCI/ADR RES cells [12] (Cell Titer-Glo, read-out: IC50) it was 16.5 µM. Besides, the IC50 with NCI-H460 cells [13] (setting [27]) was 13 µM; in the assay with NCI-H460 cells [14] (setting [28]), 10.1 µM; in the assay with MCF7 cells [15] (setting [29]) it was 7.28 µM; in the assay with MCF7 cells [16] (setting [30]) it was 8.59 µM; in assay [17] (setting [31]), 5.61 µM; in [18] (setting [32]) it was 3.2 µM. The results for the IC50 with HT-29 cells (setting [33]) and in the assay with human cancer cell lines (setting [34]) were 46.4 µM and 7.61 µM, respectively.

With `C[S+]([O-])CCCCN=C=S` (stereo not drawn) [Compound 2, 1-isothiocyanato-4-(methylsulfinyl) butane, reference compound], the IC50 was 5.25 µM with Du145 cells [1] (DU-145, 72 h); 6.1 µM in the assay with Du145 cells [2] (DU-145, 72 h); 2.94 µM in the assay with HCT-116 cells [3] (HCT-116, 72 h); 3.58 µM with HCT-116 cells [4] (HCT-116, 72 h); 4.13 µM in the assay with Hep3B cells [5]; 4.48 µM with Hep3B cells [6]. In addition, the IC50 in the assay with SF-268 cells [7] (SF-268, 72 h) was 11 µM; in the assay on SF-268 cells [8] (SF-268, 72 h) it was 6.16 µM; in the assay with SK-OV-3 cells [9] (SK-OV-3, 72 h), 7.6 µM; with SK-OV-3 cells [10] (SK-OV-3, 72 h), 4.67 µM; in the assay with NCI/ADR RES cells [11], 8.89 µM; in the assay on NCI/ADR RES cells [12] it was 8.98 µM. Also, the IC50 is 8.74 µM with NCI-H460 cells [13] (NCI-H460, 72 h); 5.94 µM with NCI-H460 cells [14] (NCI-H460, 72 h); 3.14 µM in the assay with MCF7 cells [15] (MCF7, 72 h); < 3.13 µM with MCF7 cells [16] (MCF7, 72 h); 6.86 µM in assay [17]; 6.59 µM in [18]. Further, the IC50 was found to be 45.2 µM with HT-29 cells (HT-29, 24 h) and 5.26 µM in the assay on human cancer cell lines (Homo sapiens). In addition, the “selectivity for cancer cells over NmuMG cells” value with human cancer cell lines was determined as 1.3 fold.

As to `CS(=O)(=O)CCCCN=C=S` [Compound 14, 1-isothiocyanato-4-(methylsulfonyl)butane], the IC50 is 5.24 µM with Du145 cells [1] (setting [19]); 4 µM with Du145 cells [2] (setting [20]); 4.16 µM in the assay with HCT-116 cells [3] (setting [21]); 3.29 µM in the assay on HCT-116 cells [4] (setting [22]); 3.46 µM in the assay on Hep3B cells [5] (Calcein AM, read-out: IC50); 4.48 µM in the assay with Hep3B cells [6] (Cell Titer-Glo, read-out: IC50). Also, the IC50 in the assay on SF-268 cells [7] (setting [23]) was 4.72 µM; in the assay with SF-268 cells [8] (setting [24]), 3.7 µM; with SK-OV-3 cells [9] (setting [25]), 4.84 µM; in the assay with SK-OV-3 cells [10] (setting [26]), 6.99 µM; in the assay with NCI/ADR RES cells [11] (Calcein AM, read-out: IC50), 9.99 µM; in the assay with NCI/ADR RES cells [12] (Cell Titer-Glo, read-out: IC50), 11.1 µM. Moreover, the IC50 in the assay with NCI-H460 cells [13] (setting [27]) was 10 µM; in the assay on NCI-H460 cells [14] (setting [28]), 6.87 µM; with MCF7 cells [15] (setting [29]) it was 8.36 µM; in the assay on MCF7 cells [16] (setting [30]), 2.28 µM; in assay [17] (setting [31]), 7.9 µM; in assay [18] (setting [32]), 5.32 µM. Besides, the IC50 in the assay with HT-29 cells (setting [33]) came to 39.1 µM; in the assay on human cancer cell lines (setting [34]), 5.32 µM.

For the compound `CC(C)(C)CN=C=S` [Compound 16, 1-isothiocyanato-2,2-dimethylpropane], the IC50 in the assay on Du145 cells [1] (setting [19]) was > 50 µM; with Du145 cells [2] (setting [20]), > 50 µM; in the assay on HCT-116 cells [3] (setting [21]) it was > 50 µM; with HCT-116 cells [4] (setting [22]) it was 35 µM; with Hep3B cells [5] (Calcein AM, read-out: IC50), > 50 µM; with Hep3B cells [6] (Cell Titer-Glo, read-out: IC50), > 50 µM. In addition, the IC50 in the assay with SF-268 cells [7] (setting [23]) is > 50 µM; in the assay on SF-268 cells [8] (setting [24]), > 50 µM; in the assay on SK-OV-3 cells [9] (setting [25]) it was > 50 µM; in the assay on SK-OV-3 cells [10] (setting [26]), > 50 µM; with NCI/ADR RES cells [11] (Calcein AM, read-out: IC50) it was > 50 µM; with NCI/ADR RES cells [12] (Cell Titer-Glo, read-out: IC50), > 50 µM. The IC50 was > 50 µM with NCI-H460 cells [13] (setting [27]); 30.3 µM in the assay on NCI-H460 cells [14] (setting [28]); > 50 µM with MCF7 cells [15] (setting [29]); > 50 µM in the assay with MCF7 cells [16] (setting [30]); 49.4 µM in assay [17] (setting [31]); 26.8 µM in assay [18] (setting [32]). Moreover, the IC50 in the assay on HT-29 cells (setting [33]) and in the assay with human cancer cell lines (setting [34]) was > 50 µM throughout.
